The text below walks through data of US10538532B2, “Hepatitis B antiviral agents” (ENANTA PHARMACEUTICALS, INC., priority 2016, dated 2020).

Each structure is given as a SMILES string. pEC50: −log10 of the molar value.

One experiment has as its system HBV. Briefly: HepAD38 antiviral assay: reduction of viral product accumulation (virion DNA by qPCR, HBsAg or HBeAg by ELISA). In kind it is cell-based, hepatitis B virus. The conditions noted are these: HepAD38 cells, five days after compound addition; concentration reducing viral product accumulation by 50% relative to no drug controls; read-out: HepAD38 EC50. Here is the method:
Methods: HepAD38 cells are maintained as previously reported (Ladner et al, Antimicrob. Agents Chemother. 1997, […], 1715). Briefly, cells are passaged upon attaining confluency in DMEM/F12 media in the presence of 10% FBS, Penn/Strep, 250 μg/mL G418, and 1 ug/ml tetracycline. Novel compounds are screened by first washing cells three times with PBS to remove tetracycline, and plating in 96 well plates at 35,000 cells/well. Compounds dissolved in DMSO are then diluted 1:200 into wells containing cells. Five days after compound addition, material is harvested for analysis. For an extended 8 day analysis, cells are plated and treated as described above, but media and compound are refreshed on d2 and d5 post initial treatment.
On harvest day, virion DNA is obtained by lysing with Sidestep Lysis and Stabilization Buffer and then quantified via quantitative real time PCR. Commercially available ELISA kits are used to quantitate the viral proteins HBsAg (Alpco) or HbeAg (US Biological) by following the manufacturer's recommended protocol after diluting samples to match the linear range of their respective assays. Irrespective of readout, compound concentrations that reduce viral product accumulation in the cell lysates or supernatants by 50% relative to no drug controls (EC50) are reported; EC50 ranges are as follows: A<0.1 μM; B 0.1-0.4 μM; C>0.4 μM.
For orientation: Real-time PCR tracks product formation cycle by cycle.
On to `O=C(Nc1cc(F)c(F)c(F)c1)c1ccc(Cl)c(S(=O)(=O)C2CC3CCC(C2)C3=O)c1` (centres unmarked) [Example 245], for which the negative-log EC50 (pEC50) (commonly the EC50 on a negative log10 scale, so that one unit is a factor of ten) was 6.40 to 7.00.

The experiment is the same for the next values; noted with them: Hepatitis B virus, HePAD38, 120 h, HepAD38 cells, five days after compound addition; concentration reducing viral product accumulation by 50% relative to no drug controls; read-out: HepAD38 EC50.
Turning to `O=C(Nc1cc(F)c(F)c(F)c1)c1ccc(Cl)c(S(=O)(=O)C[C@H]2C3CC[C@H]2C[C@](O)(CO)C3)c1` [Example 177], the negative-log EC50 (pEC50) was greater than 7.00. Turning to `O=C(Nc1cc(F)c(F)c(F)c1)c1ccc(Cl)c(S(=O)(=O)[C@@H]2C[C@H](O)C[C@H](O)C2)c1` [Example 79], the negative-log EC50 (pEC50) was less than 6.40.

In the case of `O=C(Nc1ccnc(Cl)c1)c1ccc(Cl)c(S(=O)(=O)[C@H]2CC[C@H](O)CC2)c1` [Example 24], the pEC50 was less than 6.40.

As to `O=C(Nc1cc(F)c(F)c(F)c1)c1ccc(Cl)c(S(=O)(=O)[C@H]2CC3CCC(C2)[C@]3(O)CNC(=O)[C@@H]2CCCN2)c1` [Example 264], the negative-log EC50 (pEC50) is greater than 7.00. As to `O=C(Nc1cc(F)c(F)cn1)c1ccc(Cl)c(S(=O)(=O)[C@H]2CC[C@H](O)CC2)c1` [Example 43], the pEC50 was less than 6.40. Still for that read-out and setting: next, `CCOC(=O)[C@@H](NC[C@]1(O)C2CCC1C[C@@H](S(=O)(=O)c1cc(C(=O)Nc3cc(F)c(F)c(F)c3)ccc1Cl)C2)C(C)C` [Example 340]: less than 6.40; `O=C(Nc1cc(F)c(F)c(F)c1)c1ccc(Cl)c(S(=O)(=O)[C@H]2CC3CCC(C2)[C@@H]3O)c1` [Example 192]: 6.40 to 7.00. Take `C=CC[C@]1(O)CC2CCC(C1)[C@@H]2S(=O)(=O)c1cc(C(=O)Nc2cc(F)c(F)c(F)c2)ccc1Cl` [Example 173]: the negative-log EC50 (pEC50) was greater than 7.00. Still for that read-out and setting: next, `O=C(Nc1cc(F)c(F)c(F)c1)c1ccc(Cl)c(O[C@H]2CC[C@H](O)CC2)c1` [Example 25]: less than 6.40; `O=C(Nc1cc(F)c(F)c(F)c1)c1ccc(Cl)c(S(=O)(=O)[C@H]2CC[C@H](CO)CC2)c1` [Example 115]: 6.40 to 7.00; `O=C(Nc1ccc(F)c(F)c1)c1ccc(Cl)c(S(=O)(=O)[C@H]2CC[C@H](O)CC2)c1` [Example 51]: 6.40 to 7.00. With `N#CC1CON(Cc2ccccc2)C1[C@]1(O)CC2CC[C@@H](C1)[C@H]2S(=O)(=O)c1cc(C(=O)Nc2cc(F)c(F)c(F)c2)ccc1Cl` (some centres unmarked) [Example 209], the negative logarithm of the EC50 (pEC50) is less than 6.40.

`CC[C@]1(O)CC2CC[C@@H](C1)[C@H]2S(=O)(=O)c1cc(C(=O)Nc2cc(F)c(F)c(F)c2)ccc1Cl` [Example 268]: the pEC50 was 6.40 to 7.00.

`O=C1CCC(S(=O)(=O)c2cc(C(=O)Nc3cc(F)c(F)c(F)c3)ccc2Cl)CC1` [Example 2]: the negative logarithm of the EC50 (pEC50) was 6.40 to 7.00. Regarding `O=C(Nc1cc(F)c(F)c(F)c1)c1ccc(Cl)c(S(=O)(=O)[C@H]2C3CC[C@H]2C[C@](O)(C(O)c2ccccc2)C3)c1` (some centres unmarked) [Example 149], the pEC50 is greater than 7.00. Regarding `CCOC(=O)C(F)(F)Sc1cc(C(=O)Nc2cc(F)c(F)c(F)c2)ccc1Cl` [Example 91], the pEC50 is less than 6.40. Regarding `C[C@H](NC(=O)OC(C)(C)C)C(=O)O[C@H]1CC[C@H](S(=O)(=O)c2cc(C(=O)Nc3cc(F)c(F)c(F)c3)ccc2Cl)CC1` [Example 5], the pEC50 was 6.40 to 7.00. Turning to `COC(=O)[C@]1(O)CC2CC[C@@H](C1)[C@H]2S(=O)(=O)c1cc(C(=O)Nc2cc(F)c(F)c(F)c2)ccc1Cl` [Example 153], the pEC50 is less than 6.40. As for `CC(C)(CO)S(=O)(=O)c1cc(C(=O)Nc2cc(F)c(F)c(F)c2)ccc1Cl` [Example 124], the negative logarithm of the EC50 (pEC50) was 6.40 to 7.00. For the compound `COc1ccccc1CO/N=C/[C@]1(O)CC2CC[C@@H](C1)[C@H]2S(=O)(=O)c1cc(C(=O)Nc2cc(F)c(F)c(F)c2)ccc1Cl` [Example 238], the pEC50 was 6.40 to 7.00.

On to `COc1cc(NC(=O)c2ccc(Cl)c(S(=O)(=O)[C@H]3CC[C@H](O)CC3)c2)ccc1F` [Example 26], for which the negative-log EC50 (pEC50) was less than 6.40. For `CCO/N=C/[C@]1(O)CC2CC[C@@H](C1)[C@H]2S(=O)(=O)c1cc(C(=O)Nc2cc(F)c(F)c(F)c2)ccc1Cl` [Example 202], the pEC50 is greater than 7.00. In the case of `CN(C)[C@H]1CC[C@H](S(=O)(=O)c2cc(C(=O)Nc3cc(F)c(F)c(F)c3)ccc2Cl)CC1` [Example 73], the pEC50 was less than 6.40. `CN(C)c1ccc(C(=O)Nc2cc(F)c(F)c(F)c2)cc1S(=O)(=O)[C@H]1C2CC[C@H]1C[C@](O)(CO)C2` [Example 147]: the pEC50 is less than 6.40. For the compound `Cc1ccc(CO/N=C/[C@]2(O)CC3CC[C@@H](C2)[C@H]3S(=O)(=O)c2cc(C(=O)Nc3cc(F)c(F)c(F)c3)ccc2Cl)cc1` [Example 230], the pEC50 is 6.40 to 7.00. On the same count and under the same terms, next, `O=C(Nc1cc(F)c(F)c(F)c1)c1ccc(Cl)c(S(=O)(=O)[C@H]2C3CC[C@H]2C[C@H](Cn2cccn2)C3)c1` [Example 311]: greater than 7.00; `O=C(Nc1cc(F)c(F)c(F)c1)c1ccc(Cl)c(S(=O)(=O)[C@H]2C3CC[C@H]2C[C@](O)(COCC(O)CO)C3)c1` (some centres unmarked) [Example 327]: 6.40 to 7.00. The same measure, in the same setting: next, `O=C(Nc1cc(F)c(F)c(F)c1)c1ccc(Cl)c(S(=O)(=O)[C@H]2C3CC[C@H]2C[C@](O)(/C=N/OCc2ccc(C(F)(F)F)cc2)C3)c1` [Example 231]: 6.40 to 7.00; `O=C(Nc1cc(F)c(F)c(F)c1)c1ccc(Cl)c(S(=O)(=O)[C@H]2C3CC[C@H]2C[C@](O)(/C=N/Oc2ccccc2)C3)c1` [Example 157]: greater than 7.00. Consider `CO[C@]1(CO)CC2CC[C@@H](C1)[C@H]2S(=O)(=O)c1cc(C(=O)Nc2cc(F)c(F)c(F)c2)ccc1Cl` [Example 152], for which the negative-log EC50 (pEC50) was greater than 7.00. `O=C(Nc1cc(F)c(F)c(F)c1)c1ccc(Cl)c(S(=O)(=O)[C@@H]2CCC[C@H](O)C2)c1` (racemic) [Example 58]: the negative-log EC50 (pEC50) was less than 6.40. Regarding `O=C(Nc1cc(F)c(F)c(F)c1)c1ccc(Cl)c(S(=O)(=O)C2C[C@@H]3O[C@H](C2)[C@@H](O)[C@H]3O)c1` (some centres unmarked) [Example 355], the pEC50 was less than 6.40. As for `O=C(Nc1cc(F)c(F)c(F)c1)c1ccc(Cl)c(S(=O)(=O)[C@H]2C3CC[C@H]2C[C@](O)(COCc2cccnc2)C3)c1` [Example 187], the pEC50 is greater than 7.00. For `CCOC(OCC)[C@]1(O)CC2CC[C@@H](C1)[C@H]2S(=O)(=O)c1cc(C(=O)Nc2cc(F)c(F)c(F)c2)ccc1Cl` [Example 197], the negative logarithm of the EC50 (pEC50) was 6.40 to 7.00. As for `O=C(Nc1cccc(F)c1)c1ccc(Cl)c(S(=O)(=O)[C@H]2CC[C@H](O)CC2)c1` [Example 65], the negative-log EC50 (pEC50) is less than 6.40. As to `N[C@@H](Cc1ccccc1)C(=O)NC[C@]1(O)C2CCC1C[C@@H](S(=O)(=O)c1cc(C(=O)Nc3cc(F)c(F)c(F)c3)ccc1Cl)C2` [Example 366], the pEC50 is 6.40 to 7.00. On the same count and under the same terms, next, `O=C(Nc1cc(F)c(F)c(F)c1)c1ccc(Cl)c(S(=O)(=O)[C@H]2CC[C@](O)(CO)CC2)c1` [Example 109]: 6.40 to 7.00; `O=C1CC2CC[C@@H](C1)[C@H]2S(=O)(=O)c1cc(C(=O)Nc2cc(F)c(F)c(F)c2)ccc1Cl` [Example 130]: greater than 7.00. The same measure, in the same setting: then `O=C(Nc1cc(F)c(F)c(F)c1)c1ccc(Cl)c(S(=O)(=O)[C@H]2C3CC[C@H]2C[C@H](c2cc(-c4ccccc4)on2)C3)c1` [Example 239], with greater than 7.00; and `CC(O)[C@]1(O)CC2CC[C@@H](C1)[C@H]2S(=O)(=O)c1cc(C(=O)Nc2cc(F)c(F)c(F)c2)ccc1Cl` (some centres unmarked) [Example 136], with greater than 7.00; and `C[C@H](NC(=O)OC(C)(C)C)C(=O)NC[C@]1(O)C2CCC1C[C@@H](S(=O)(=O)c1cc(C(=O)Nc3cc(F)c(F)c(F)c3)ccc1Cl)C2` [Example 349], with greater than 7.00. On the same count and under the same terms, then `CCOC(=O)C(C)(C)S(=O)(=O)c1cc(C(=O)Nc2cc(F)c(F)c(F)c2)ccc1Cl` [Example 92], with less than 6.40; and `CC(C)[C@H](N)C(=O)O[C@H]1CC[C@H](S(=O)(=O)c2cc(C(=O)Nc3cc(F)c(F)c(F)c3)ccc2Cl)CC1` [Example 75], with 6.40 to 7.00; and `O=C(Nc1cc(F)c(F)c(F)c1)c1ccc(Cl)c(SC2CCC=CCC2)c1` [Example 63], with less than 6.40. Take `O=C(Nc1cc(F)c(F)c(F)c1)c1ccc(Cl)c(S(=O)(=O)[C@H]2C3CC[C@H]2C[C@](O)(COCc2ccncc2)C3)c1` [Example 316]: the pEC50 is 6.40 to 7.00.

As for `O=C(Nc1cc(F)c(F)c(F)c1)c1ccc(Cl)c(S(=O)(=O)[C@H]2C3CC[C@H]2C[C@](O)(/C=N/OCc2ccccc2F)C3)c1` [Example 244], the pEC50 was greater than 7.00.

On to `O=C(Nc1cc(F)c(F)c(F)c1)c1ccc(Cl)c(S(=O)(=O)[C@H]2CC3CCC(C2)[C@]3(O)C(O)CO)c1` (some centres unmarked) [Example 352], for which the pEC50 is greater than 7.00.

On to `[2H]C1([2H])C2C[C@@](O)(CO)C[C@H](C1([2H])[2H])[C@@]2([2H])S(=O)(=O)c1cc(C(=O)Nc2cc(F)c(F)c(F)c2)ccc1Cl` [Example 159], for which the pEC50 is greater than 7.00. As to `CC(CO)NC[C@]1(O)C2CCC1C[C@@H](S(=O)(=O)c1cc(C(=O)Nc3cc(F)c(F)c(F)c3)ccc1Cl)C2` (some centres unmarked) [Example 341], the pEC50 was 6.40 to 7.00. Turning to `O=C[C@]1(O)CC2CC[C@@H](C1)[C@H]2S(=O)(=O)c1cc(C(=O)Nc2cc(F)c(F)c(F)c2)ccc1Cl` [Example 129], the pEC50 was greater than 7.00. As for `O=C(Nc1cc(F)c(F)c(F)c1)c1ccc(Cl)c(S(=O)(=O)C[C@H]2CC[C@@H](O)CC2)c1` [Example 112], the pEC50 was greater than 7.00. Take `C=C1CC2CCC(C1)C2S(=O)(=O)c1cc(C(=O)Nc2cc(F)c(F)c(F)c2)ccc1Cl` (centres unmarked) [Example 49]: the negative-log EC50 (pEC50) is 6.40 to 7.00.
